From US9469650B2, “Melampomagnolide B derivatives” (BOARD OF TRUSTEES OF THE UNIVERSITY OF ARKANSAS, priority 2013, dated 2016)
Where two headings read alike, the source gives them in different places.

Columns and labels:
K-562 = test: panel of 60 human tumor cell lines, growth inhibition (Leukemia)
MOLT-4 = test: as above; settings: Homo sapiens
SK-MEL-5 = test: panel of 60 human tumor cell lines, growth inhibition (Melanoma); settings: Homo sapiens
U251 = test: panel of 60 human tumor cell lines, growth inhibition (CNS Cancer); settings: Homo sapiens
786-0 = test: panel of 60 human tumor cell lines, growth inhibition (Renal Cancer); settings: Homo sapiens
A498 = test: as above; settings: Homo sapiens
HS 578T = test: panel of 60 human tumor cell lines, growth inhibition (Breast Cancer); settings: Homo sapiens, Hs-578T
T-47D = test: as above; settings: Homo sapiens, T47D
MDA-MB-468 = test: as above; settings: Homo sapiens
OVCAR-3 = test: panel of 60 human tumor cell lines, growth inhibition (Ovarian Cancer)
PC-3 = test: panel of 60 human tumor cell lines, growth inhibition (Prostate Cancer); settings: Homo sapiens
DU-145 = test: as above; settings: Homo sapiens
HOP-62 = test: panel of 60 human tumor cell lines, growth inhibition (Non-Small Cell Lung Cancer); settings: Homo sapiens
HOP-92 = test: as above; settings: Homo sapiens
NCI-H226 = test: as above; settings: Homo sapiens
NCI-H460 = test: as above; settings: Homo sapiens

In the case of `C=C1C(=O)O[C@H]2[C@H]1CC/C(COC(=S)n1ccnc1)=C\CC[C@@]1(C)O[C@@H]21` [JVM 66], the “Percent Growth” value (HL-60(TB); Log10 Concentration −4.0) is reported as −62%, the “Percent Growth” value (HL-60(TB); Log10 Concentration −5.0) is reported as 16% and the “Percent Growth” value (HL-60(TB); Log10 Concentration −6.0) is reported as 102%. The “Percent Growth” value (HL-60(TB); Log10 Concentration −7.0) was 101%, the “Percent Growth” value (HL-60(TB); Log10 Concentration −8.0) was 95% and the CC50 (K-562; Homo sapiens, K562, read-out: LC50) was greater than 100 µM. For the same compound, the “Percent Growth” value (K-562; K-562, Log10 Concentration −4.0) was 1%, the “Percent Growth” value (K-562; K-562, Log10 Concentration −5.0) was 16% and the “Percent Growth” value (K-562; K-562, Log10 Concentration −6.0) was 100%. For the same compound, the “Percent Growth” value (K-562; K-562, Log10 Concentration −7.0) was 90%, the “Percent Growth” value (K-562; K-562, Log10 Concentration −8.0) was 96% and the TGI (K-562; K-562, NCI five dose) was greater than 1.00E−4. It also gave a GI50 (MOLT-4; MOLT-4) of 6.38 µM, a CC50 (MOLT-4; MOLT-4, read-out: LC50) greater than 100 µM and an IC (TGI) (MOLT-4; MOLT-4, read-out: TGI) of 34.4 µM. It also gave a GI50 (SK-MEL-5; SK-MEL-5) of 13.3 µM, a CC50 (SK-MEL-5; SK-MEL-5, read-out: LC50) of 55.6 µM and an IC (TGI) (SK-MEL-5; SK-MEL-5, read-out: TGI) of 27.7 µM. For the same compound, the GI50 (U251; U-251) was 32.5 µM, the CC50 (U251; U-251, read-out: LC50) was greater than 100 µM and the IC (TGI) (U251; U-251, read-out: TGI) was greater than 100 µM. For the same compound, the GI50 (786-0; 786-0) was 16.8 µM, the CC50 (786-0; 786-0, read-out: LC50) was 85.7 µM and the IC (TGI) (786-0; 786-0, read-out: TGI) was 37.9 µM. It also gave a GI50 (A498; A498) of 14.5 µM, a CC50 (A498; A498, read-out: LC50) greater than 100 µM and an IC (TGI) (A498; A498, read-out: TGI) of 65.5 µM. The GI50 (HS 578T) was 26.5 µM, the CC50 (HS 578T; read-out: LC50) was greater than 100 µM and the IC (TGI) (HS 578T; read-out: TGI) was greater than 100 µM. The GI50 (T-47D) was 12.9 µM, the CC50 (T-47D; read-out: LC50) was greater than 100 µM and the IC (TGI) (T-47D; read-out: TGI) was 42.4 µM. It also gave a GI50 (MDA-MB-468; MDA-MB-468) of 3.55 µM, a CC50 (MDA-MB-468; MDA-MB-468, read-out: LC50) greater than 100 µM and an IC (TGI) (MDA-MB-468; MDA-MB-468, read-out: TGI) of 28.5 µM. For the same compound, the GI50 (OVCAR-3; Homo sapiens, OVCAR-3) was 10.4 µM, the CC50 (OVCAR-3; Homo sapiens, OVCAR-3, read-out: LC50) was 49.2 µM and the “Percent Growth” value (OVCAR-3; OVCAR-3, Log10 Concentration −4.0) was −96%. The “Percent Growth” value (OVCAR-3; OVCAR-3, Log10 Concentration −5.0) was 53%, the “Percent Growth” value (OVCAR-3; OVCAR-3, Log10 Concentration −6.0) was 103% and the “Percent Growth” value (OVCAR-3; OVCAR-3, Log10 Concentration −7.0) was 130%. For the same compound, the “Percent Growth” value (OVCAR-3; OVCAR-3, Log10 Concentration −8.0) was 101%, the GI50 (PC-3; PC-3) was 12 µM and the CC50 (PC-3; PC-3, read-out: LC50) was greater than 100 µM. It also gave an IC (TGI) (PC-3; PC-3, read-out: TGI) of 66.6 µM, a GI50 (DU-145; DU-145) of 12.2 µM and a CC50 (DU-145; DU-145, read-out: LC50) of 59.1 µM. The IC (TGI) (DU-145; DU-145, read-out: TGI) was 26.9 µM, the GI50 (HOP-62; HOP-62) was 36.5 µM and the CC50 (HOP-62; HOP-62, read-out: LC50) was greater than 100 µM. It also gave a GI50 (HOP-92; HOP-92, HOP-92, NCI five dose) of 6.83 µM, a CC50 (HOP-92; HOP-92, read-out: LC50) of 83.2 µM and an IC (TGI) (HOP-92; HOP-92, read-out: TGI) of 26.9 µM. It also gave a GI50 (NCI-H226; NCI-H226) of 99.6 µM, a CC50 (NCI-H226; NCI-H226, read-out: LC50) greater than 100 µM and an IC (TGI) (NCI-H226; NCI-H226, read-out: TGI) greater than 100 µM. It also gave a GI50 (NCI-H460; NCI-H460) of 15.7 µM, a CC50 (NCI-H460; NCI-H460, read-out: LC50) greater than 100 µM and an IC (TGI) (NCI-H460; NCI-H460, read-out: TGI) of 71.4 µM.
